Patent US20140341916A1, “THERAPEUTIC COMBINATIONS AND METHODS OF TREATING MELANOMA” (Genentech, Inc., priority 2011, published 2014)

Experiments:
ETBR transcript [1] = assay: ETBR transcript level in melanoma cell lines, Taqman, normalized to RPL19; type: cell-based, human; settings: A2058 cells, 24 h
Procedure: (§1) Melanoma cell lines UACC-257X2.2, A2058, COLO 829, IPC-298 (ATCC) were treated with a BRAF inhibitor drug (“BRAFi”), specifically RG7204 at varying concentrations by adding the appropriate drug volume to cells in culture for 24 h on four-well dishes.
(§2) To determine the effect of BRAFi on ETBR and control ribosomal protein L19 (RPL19) transcript levels, the following experiments were performed. Cells treated with RG7204 for 24 h were harvested from plates by scraping and processed for total RNA using Qiashredder and RNeasy mini kits (79654, 74104 from Qiagen, Valencia, Calif.). Taqman assays were set up using reagents from Applied Biosystems (ABI, Foster City, Calif.) and assayed using 7500 Real Time PCR machine and software from ABI. Primer-probe sets were designed with primers flanking a fluorogenic probe dual labeled with Reporter dye FAM and quencher dye TAMRA.
(§3) Melanoma cell lines A2058, COLO 829, SK23-MEL and IPC-298 (ATCC) were treated with a MEK inhibitor drug (“MEKi-973” or “MEKi-623”), at varying concentrations (0 μM, 0.01 μM, 0.1 μM or 1 μM) by adding the appropriate drug volume to cells in culture for 24 h on four-well dishes.
as §2, with “MEKi” for “BRAFi”, “ETBR” for “ETBR and control ribosomal protein L19 (RPL19)”, “performed as described above in Example 3.” for “performed.”, “either MEKi-973” for “RG7204”

ETBR surface protein = assay: Surface ETBR protein in live melanoma cells, FACS; type: cell-based, human; settings: 24 h
Procedure: as §1
(§4) To determine whether the observed increases in total ETBR protein level due to BRAFi treatment also results in an increase of ETBR surface protein levels, a fluorescence-activated cell sorting (FACS) analysis was performed. Cells were harvested in PBS with 2.5 mmol/L EDTA and washed in PBS buffer containing 1% FBS. All subsequent steps were carried out at 4° C. Cells were incubated for 1 hour with 3 μg/mL anti ETBR antibody Hu5E9v1, followed by anti-human IgG fluorescent detection reagent (A11013; Invitrogen). Cells were then analyzed with a FACS Calibur flow cytometer (BD Biosciences). The results for UACC-257X2.2 are shown in FIG. 4C, the results for A2058 are shown in FIG. 8C, and the results for COLO 829 are shown in FIG. 6C.
as §3
as §4, with “MEKi” for “BRAFi”, “performed as described above.” for “performed.”, “Biosciences).” for “Biosciences). The results for UACC-257X2.2 are shown in FIG. 4C, the results for A2058 are shown in FIG. 8C, and the results for COLO 829 are shown in FIG. 6C.”

ETBR total protein = ETBR total protein in melanoma cell lines, Western blot; type: cell-based, human; settings: 24 h
Procedure: as §1
To test whether the increase in ETBR transcripts due to BRAFi treatment also results in any changes in ETBR total protein levels, Western blot experiments were performed on the same cell lines treated with BRAFi RG7204 as described above. For Western blotting, the following reagents were used: for detection of proteins: an anti-ETBR in-house generated monoclonal antibody 1H1.8.5, anti-Phospho-p44/42 MAPK (Erk1/2) (Thr202/Tyr204) antibody (9101, Cell Signaling Technology), anti-p44/42 MAPK (Erk1/2) antibody (9102, Cell Signaling Technology) and as controls, a rabbit polyclonal anti-GAPDH (glyceraldehyde-3-phosphate dehydrogenase) antibody (PA1-987; Affinity Bioreagents) and mouse monoclonal anti-β-Tubulin antibody (556321, BD Pharmingen). The results for UACC-257X2.2 are shown in FIG. 4B, the results for A2058 are shown in FIG. 8B, the results for COLO 829 are shown in FIG. 6B and the results for IPC-298 are shown in FIG. 10.
as §3
To test whether the increase in ETBR transcripts due to MEKi treatment also results in any changes in ETBR total protein levels, Western blot experiments were performed on cell lines COLO829 (BRAF^V600E), A2058 (BRAF^V600E), SK23-MEL (BRAF^WT/RAS^WT), or IPC-298 (BRAF^WT/RAS^[…]) which were treated with MEKi-973 as described above. For Western blotting, the following reagents were used: for detection of proteins: an anti-ETBR in-house generated monoclonal antibody 1H1.8.5, anti-Phospho-p44/42 MAPK (Erk1/2) (Thr202/Tyr204) antibody (9101, Cell Signaling Technology), anti-p44/42 MAPK (Erk1/2) antibody (9102, Cell Signaling Technology) and as controls, a rabbit polyclonal anti-GAPDH (glyceraldehyde-3-phosphate dehydrogenase) antibody (PA1-987; Affinity Bioreagents) and mouse monoclonal anti-β-Tubulin antibody (556321, BD Pharmingen). The results for A2058 are shown in FIG. 15A treated with MEKi-623 and 15B treated with MEKi-973, the results for COLO 829 are shown in FIG. 12A treated with MEKi-623 and 12B treated with MEKi-973, the results for SK23-MEL are shown in FIG. 19A treated with MEKi-623 and 19B treated with MEKi-973, and the results for IPC-298 are shown in FIG. 22A treated with MEKi-623 and 22B treated with MEKi-973.

ETBR transcript [2] = assay: PD study, ETBR transcript in A2058 tumors, Taqman, normalized to Hprt1; type: in vivo, mice; settings: MEKi-973 5 mpk and 10 mpk orally once a day for 3 days
Procedure: A2058 or COLO 829 tumors were grown to an average size of approximately 200 mm^3, whereupon animals were randomized into groups of 5-6 each. For the BRAFi PD study, an appropriate vehicle control (Klucel LF) or RG7204 at doses of 10 mpk or 30 mpk were administered twice a day for 3 days (FIG. 27A). For the MEKi PD study, an appropriate vehicle control or MEKi-973 at doses of 5 mpk and 10 mpk were administered orally once a day for 3 days (FIG. 27B). Flash frozen tumors harvested at end of study were homogenized and processed for RNA and/or protein. Taqman assays were set up using reagents from Applied Biosystems (ABI, Foster City, Calif.) and assayed using 7500 Real Time PCR machine and software from ABI. Primer-probe sets were designed with primers flanking a fluorogenic probe dual labeled with Reporter dye FAM and quencher dye TAMRA. ETBR transcript levels in the tumors were normalized against transcript levels of reference genes such as Hprt1 (hypoxanthine phosphoribosyltransferase 1) or GAPDH (glyceraldehyde 3 phosphate dehydrogenase) using primer and probe sets that were specific to the human homologs of these genes.

O=C(c1ccc(F)c(F)c1Nc1ccc(I)cc1F)N1CC(O)([C@@H]2CCCCN2)C1 [MEKi-973, (S)-(3,4-difluoro-2-((2-fluoro-4-iodophenyl)amino)phenyl)(3-hydroxy-3-(piperidin-2yl)azetidin-1-yl)methanone]
ETBR transcript vs untreated control cells (ETBR transcript [1]): appears to increase the ETBR transcripts | surface level of ETBR protein vs untreated control cells (ETBR surface protein; A2058 cells): appears to increase the surface levels of ETBR protein | surface level of ETBR protein vs untreated control cells (ETBR surface protein; COLO 829 cells): appears to increase the surface levels of ETBR protein | surface level of ETBR protein vs untreated control cells (ETBR surface protein; IPC-298 cells): appears to increase the surface levels of ETBR protein | surface level of ETBR protein vs untreated control cells (ETBR surface protein; SK23-MEL cells): appears to increase the surface levels of ETBR protein | ETBR total protein level vs untreated control cells (ETBR total protein; A2058 cells (BRAF V600E)): appears to increase the ETBR total protein levels | ETBR total protein level vs untreated control cells (ETBR total protein; COLO 829 cells (BRAF V600E)): appears to increase the ETBR total protein levels | ETBR total protein level vs untreated control cells (ETBR total protein; IPC-298 cells (BRAF wild-type, RAS mutant)): appears to increase the ETBR total protein levels | ETBR total protein level vs untreated control cells (ETBR total protein; SK23-MEL cells (BRAF WT/RAS WT)): appears to increase the ETBR total protein levels | ETBR mRNA in tumors vs control vehicle (ETBR transcript [2]): induces ETBR mRNA in vivo
